# Entries after “also recorded” stand apart in the source; their conditions may differ.
# Legend:
# [1] = system: PBMCs activated through TLR-3; experiment: TNFα production in Poly r(I:C)-activated PBMCs (sandwich ELISA); conditions: 0.3 nM to 750 nM
# influenza (H1N1) = experiment: In vivo lethal influenza H1N1 studies, cytokine levels; parameters: species or system mice
# [2] = system: CD19 CAR T-cells co-cultured with CD19+Raji lymphoma target cells; experiment: CD19 CAR T-cell / Raji co-culture, pro-inflammatory cytokine levels; assay type: cell-based, human
# CD19+Raji tumor cells = experiment: CD19 CAR T-cell killing of Raji target cells (flow cytometry, 7-AAD); assay type: cell-based, human; conditions: in vitro; Effector:Target 10:1, 5:1, 1:1; all concentrations; monosodium salt
# Raji-luc tumor cells = experiment: CAR T-cell efficacy in NSG tumor bearing mice; assay type: in vivo
# Procedure: Human T-cells expressing CD19-CD28-CD3Z CAR construct was used in this experiment.
# 6-7 week old NSG™ (NOD SCID gamma) mice were engrafted with 1×10^6 luciferase (luc) expressing Raji tumor cells (herein referred to as “Raji-luc” tumor cells) each on Day 1 to allow for tumor growth over a 7-day period prior to the commencement of the treatment. CAR T-cell infusion was performed intravenously via lateral tail vein on (5×10^6 CD19 CAR T-cells generated from healthy donors). NSG mice are severely immunodeficient, which facilitates ready tumor engraftment and subsequent clearance due to CAR T-cells can be measured.
# Tumor growth after engraftment and subsequent clearance were monitored once weekly (starting on Day 7) using IVIS imaging to detect luciferase signal in living mice. […] CTO1681 doses were selected based on the pharmacokinetic profile of the drug in mice. Control groups included mice receiving Raji-luc tumor cells without CAR T-cell treatment, mice receiving Raji-luc tumor cells and a CAR T-cell infusion, and mice receiving Raji-luc tumor cells with vehicle treatments. Mice were monitored for body temperature and health evaluations (weight, movement, posture, fur condition, etc.) throughout the entire study.
# [3] = Pharmacokinetics in African Green Monkeys, TID oral gavage; assay type: in vivo
# Procedure: (§1) Individual Animal Metrics—Nine African green monkeys (approximately 16 years old, wild-caught) were used in this PK study. Per requirements of the CDC, all animals were quarantined at a CDC facility for 30 days followed by a 90-day quarantine/acclimation period at TNPRC prior to study initiation. Animals were dosed three times daily (TID) by oral gavage in three separate rounds of the study (ascending dose concentrations). Individual animal weights were tracked throughout the entirety of the study. On average, weights decreased 5.5% across all cohorts, with no individual animal losing more than 8.7% of its initial body weight over the course of the study. No difference in mean weight change is observed between male and female monkeys. […] Ultimately, the animals handled the schedule well, all remaining in good health with a weight loss of no more than what was expected by the veterinary staff with the schedule intensity.
# Individual animal profiles were evaluated following each dose on a single day of dosing. Single day TID doses were administered using the same animals following a minimum of 7 days wash out between increasing dose level rounds, where Round 1 was TID 0.008 mg/kg/day (0.00267 mg/kg/dose), Round 2 was TID 0.04 mg/kg/day (0.0133 mg/kg/dose), and Round 3 was TID 0.2 mg/kg/day (0.0667 mg/kg/dose). Wash out (negative) plasma levels of CTO1681 between dose rounds were confirmed. […] Samples were collected at the following target timepoints relative to the first TID dose of the day: 0.25, 0.5, 1, 2, 4, and 8 hours (prior to second daily dose), 8.25, 8.5, 9, 10, 12, and 16 hours (prior to third daily dose), 16.25, 16.5, 17, 18, 20, 24, 28 and 40 hours after TID test item administration by oral gavage dosing, with the three daily doses administered at 0, 8 and 16 h in 9 animals, staggered for n=3 collection after administration of each daily dose. […]
# [4] = Body weight and tolerability in African green monkey PK study; assay type: in vivo, African green monkeys
# Procedure: as §1
# [5] = Single dose PK study in BALB/C mice; assay type: in vivo, murine (BALB/C)
# [6] = BID dose PK study in NSG mice (CAS-2201); assay type: in vivo, murine (NSG)
# [7] = system: circulating cytokines (TNFα); experiment: Serum cytokine measurements after CTO1681 treatment in African Green Monkeys; assay type: in vivo; conditions: highest dose of CTO1681 compared to the other two cohorts
# From the text: Longitudinal serum samples were taken through the course of the observation period. At the end of all three cohorts serum samples were utilized to determine circulating concentrations of 12 different cytokines. Representative data is pictured below for TNFα, a key central cytokine in CRS (FIG. 6). […] Overall there appears to be a dose-dependent trend to cytokine reduction.
# Food effect = assay type: in vivo; conditions: oral tablets
# [8] = Example 3: human treatment with no delay period; assay type: in vivo; conditions: B-cell lymphoma, daily for 7-15 days
# From the text: Both groups will receive infusion of CAR T-cells. […] Clinical signs of CRS and cytokines will be monitored daily for both groups.
# [9] = Example 4: treatment with predetermined delay period; assay type: in vivo, human; conditions: mantle cell lymphoma; start three days after CAR T-cells, eleven days
# From the text: Both groups will receive infusion of CAR T-cells. […] Cytokines will be monitored daily for both groups.
# [10] = Example 5: treatment with monitored delay period; assay type: in vivo, human; conditions: acute myeloid leukemia; start upon cytokine increase, ten days
# From the text: Both groups will receive infusion of CAR T-cells. Cytokines will be monitored daily for both groups. […] Treatment with CTO1681 will continue daily for ten days.
# influenza (H5N1) = conditions: in vivo; cited from earlier work
# [11] = Example 2: mouse model of CAR T-cell therapy induced CRS; conditions: IP, BID for 7 days
# [12] = Phase 1 multiple ascending, repeat-dosing study in healthy volunteers
# TNF-α = conditions: patients with diabetes; doses within dose equivalencies of CTO1681 MAD study; cited from earlier work
# [13] = CytoAgents in vivo influenza (H1N1) studies
# [14] = 10:1 ratio of Effectors to Target cells, CTO1681 0.36-225 nM, 24 hours
smiles,measurement,setting,value
"CC#CCC(C)[C@H](O)/C=C/[C@@H]1[C@H]2c3cccc(CCCC(=O)O)c3O[C@H]2C[C@H]1O (some centres unmarked) [Beraprost, reference compound]",EC50,"[1]; PBMC, Replicate 1",17.1 nM
same,EC50,"[1]; PBMC, Replicate 2",8.64 nM
same,EC50,"[1]; PBMC, Replicate 3",17.1 nM
"CC#CC[C@H](C)[C@H](O)/C=C/[C@@H]1[C@H]2c3cccc(CCCC(=O)[O-])c3O[C@H]2C[C@H]1O.[Na+] [CTO1681, (+)-[1R, 2R, 3aS, 8bS]-2,3,3a,8b-tetrahydro-2-hydroxy-1-[(E)-(3S,4S)-3-hydroxy-4-methyl-1-octen-6-ynyl)-1Hcyclopenta[b]benzofuran-5-butanoic acid, monosodium salt]",IL-2 level,influenza (H1N1); [13],reduced
same,IL-6 level,influenza (H1N1); [13],reduced
same,IL-10 level,influenza (H1N1); [13],reduced
same,IFN-α concentrations,influenza (H1N1); lethal H1N1 influenza infections,no significant repression
same,Maximum reduction of IFN-γ,[2]; [14],~26%
same,Maximum reduction of TL-6,[2]; [14],~23%
same,Maximum reduction of TNF-α,[2]; [14],approximately 50%
same,Levels of IL-6,[2]; CAR T-cells and Raji cells at a 10:1 ratio (FIG. 1A),dose-dependently lowers
same,Levels of TNF-α,[2]; CAR T-cells and Raji cells at a 10:1 ratio (FIG. 1B),dose-dependently lowers
same,Levels of IFN-γ,[2]; CAR T-cells and Raji cells at a 10:1 ratio (FIG. 1C),dose-dependently lowers
same,Effect on tumor/target cell killing of CD19-directed CAR T-cells,CD19+Raji tumor cells,absence of an effect; also recorded: did not impact or interfere
same,Effect on CD19 CAR T-cell activity (reduction of lymphoma tumor burden),"Raji-luc tumor cells; 0.3, 0.2 or 0.15 mg/kg/d BID for 14 days, Day 15, monosodium salt",does not interfere; also recorded: did not affect
same,"Clinical morbidities, including weight loss or limb movement","Raji-luc tumor cells; NSG mice, with CAR T-cell therapy",did not cause any increase
same,Tmax,"[3]; round 1, 0.008 mg/kg/day TID oral",1.5 h
same,Tmax,"[3]; round 2, 0.04 mg/kg/day TID oral",2.0 h
same,Tmax,"[3]; round 3, 0.2 mg/kg/day TID oral",2.1 h
same,Tolerability / toxicities or negative health effects,"[4]; TID oral administration, 0.008-0.2 mg/kg/day, monosodium salt",overall tolerable; also recorded: no toxicities or negative health effects
same,Average weight decrease across all cohorts,[4]; entire study,5.5%
same,Largest individual loss of initial body weight,[4]; entire study,≤ 8.7%
same,T1/2,[5],1 to 2 h
same,Elimination half-life,"[6]; calculated using first daily dose, range of 6-12 h (Rsq=0.40)",1.8 h
same,T1/2 of BID exposure,[6]; two times a day (BID) dose,approximately 5 hours
same,Cytokine levels in serum (TNFα representative),[7],remarkable and consistent reduction
same,Food effect,Food effect,positive food effect
same,CRS symptoms vs control group,[8],reduced CRS symptoms
same,Undesired cytokine production vs control group,[8],lower undesired cytokine production
same,CRS symptoms vs control group,[9],reduced CRS symptoms
same,Undesired cytokine production vs control group,[9],lower undesired cytokine production
same,CRS symptoms vs control group,[10],reduced CRS symptoms
same,Undesired cytokine production vs control group,[10],lower undesired cytokine production
same,IL-2 level,influenza (H5N1),reduced
same,IL-6 level,influenza (H5N1),reduced
same,IL-8 level,influenza (H5N1),reduced
same,IL-10 level,influenza (H5N1),reduced
same,Comparison with dexamethasone,[11],superior to dexamethasone
same,Survival benefits over dexamethasone,[11],greater survival benefits
same,EC50,[1]; Replicate 1,5.7 nM
same,EC50,[1]; Replicate 2,4.14 nM
same,EC50,[1]; Replicate 3,1.95 nM
same,Cytokine levels (panel of 27 cytokines),[12],no clinically significant decreases
same,"SAEs, TEAEs of special interest, TEAEs leading to study discontinuation or dose reduction","[12]; 15 to 60 μg/day, 7 days",No SAEs
same,"Treatment-emergent AEs, mild","[12]; 15 to 60 μg/day, 7 days",62 AEs
same,"Treatment-emergent AEs, moderate","[12]; 15 to 60 μg/day, 7 days",4 AEs
"CC#CCC(C)C(O)C=CC1C(O)CC2Oc3c(CCCC(=O)[O-])cccc3C21.[Na+] (centres unmarked) [beraprost sodium, 2,3,3a,8b-tetrahydro-2-hydroxyl-1-(3-hydroxyl-4-methyl-1-octen-6-ynyl)-1H-cyclopenta[b]benzofuran-5-butanoic acid, sodium salt]",TNF-α,TNF-α,significant reductions

# Source: US20230381237A1, “CHIMERIC ANTIGEN RECEPTOR (CAR) T-CELL ADJUVANT THERAPIES” (priority 2022, published 2023)
